Data from patent US20210255193A1, “LYSINE REACTIVE PROBES AND USES THEREOF” (The Scripps Research Institute, priority 2017, published 2021).

Legend:
Assay in all cases: direct labeling of recombinantly expressed proteins by gel-based ABPP (WT vs lysine mutant)
Assay type in all cases: binding
HDHD3 = molecular target: T1, HDHD3 (Homo sapiens, UniProt Q9BSH5); details: HDHD3 K15, KR mutant; 10 μM probe, 1 h
T1 construct: Flag; expressed in transfected cells; host or cells: HEK 293T
T1 sequence (Q9BSH5 1-251): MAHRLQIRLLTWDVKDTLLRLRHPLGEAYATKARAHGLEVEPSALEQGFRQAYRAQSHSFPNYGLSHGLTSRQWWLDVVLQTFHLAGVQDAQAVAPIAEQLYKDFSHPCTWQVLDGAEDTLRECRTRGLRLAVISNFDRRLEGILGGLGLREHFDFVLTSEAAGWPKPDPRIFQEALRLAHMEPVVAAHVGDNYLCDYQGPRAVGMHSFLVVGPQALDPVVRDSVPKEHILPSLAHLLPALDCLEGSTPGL
Text: (§1) Subcloning and mutagenesis. Unless noted below, genes were amplified from cDNA prepared from low passage HEK 293T cells using the Ribozol RNA extraction reagent (Amresco) and the iScript Reverse Transcription Supermix kit (Bio-Rad). For the following proteins cDNA clones were used for amplification instead: PFKP (5180268, Dharmacon), HK1 (BC008730, transomic), SIN3A (BC137098, transomic), G6PD (BC000337, transomic) and TGIF1 (BC031268, transomic). Mouse CARM1 in pFLAG-CMV-6c was a kind gift from the Mowen lab (TSRI). NUDT2 was obtained as synthesized gene (IDT). DNA was amplified with custom forward and reverse primers using phusion polymerase (NEB, M0530S), digested with the indicated restriction enzyme and ligated into pFLAG-CMV-6c or pRK5 with the appropriate affinity tag. Lysine mutants were generated using QuikChange site-directed mutagenesis using Phusion® High-Fidelity DNA Polymerase and primers containing the desired mutations and their respective complements. The cloning of TTR and its K35A mutant has been described in Choi et al., “Chemoselective small molecules that covalently modify one lysine in a non-enzyme protein in plasma,” Nat. Chem. Biol. 6, 133-139 (2010). TTR was expressed in E. coli and purified as described. For gel-based experiments 1 μM TTR was added into 1 mg ml^−1 soluble MDA-MB-231 lysate.
(§2) Recombinant expression of proteins by transient transfection. HEK 293T cells were grown to 50% confluency in 10 ml DMEM supplemented with 10% fetal bovine serum (FBS), penicillin, streptomycin and glutamine in 10 cm tissue culture dishes. 3 μg of DNA was diluted in 500 μL DMEM and 30 μL of PEI (MW 40,000, 1 mg ml^−1, Polysciences) were added. The mixture was incubated at room temperature for 30 min and added dropwise to the cells. Cells were grown for 48 h at 37° C. with 5% CO2. Cells were washed with cold PBS, scraped with cold PBS and cell pellets were isolated by centrifugation (1,400 g, 3 min, 4° C.), and stored at −80° C. until use. Cell pellets were resuspended in PBS, lysed by sonication and fractionated (100,000 g, 45 min) to yield soluble and membrane fractions. The soluble fraction was adjusted to a final protein concentration of 1 mg ml^−1 for gel-based ABPP experiments.
(§3) Direct labeling of recombinantly expressed proteins by gel-based ABPP. 50 μL of soluble HEK 293T proteome (1 mg ml^−1) expressing the respective protein (WT or KR mutant) or transfected with an empty vector were treated with 10 μM of the indicated probe for 1 h at room temperature. The samples were analyzed as described in the previous section. For quantification of relative labeling of the different protein variants, the intensity of labeling was determined by quantifying the integrated optical intensity of the bands using ImageLab 5.2.1 software (BioRad).

PMVK = molecular target: T2, PMVK (Homo sapiens, UniProt Q15126); details: PMVK K48, KR mutant; 10 μM probe, 1 h
T2 construct: expressed in transfected cells; host or cells: HEK 293T
T2 sequence (Q15126 1-192): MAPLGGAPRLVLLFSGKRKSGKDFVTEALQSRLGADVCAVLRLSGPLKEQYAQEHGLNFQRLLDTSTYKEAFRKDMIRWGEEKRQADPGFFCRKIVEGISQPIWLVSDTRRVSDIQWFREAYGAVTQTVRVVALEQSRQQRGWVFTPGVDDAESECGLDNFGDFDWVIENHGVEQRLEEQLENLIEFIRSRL
Text: as §1, §2, §3

Sin3a = molecular target: T3, Sin3a (Homo sapiens, UniProt Q96ST3); details: Sin3a K155, KR mutant; 10 μM probe, 1 h
T3 construct: expressed in transfected cells; host or cells: HEK 293T
T3 sequence (Q96ST3 1-400): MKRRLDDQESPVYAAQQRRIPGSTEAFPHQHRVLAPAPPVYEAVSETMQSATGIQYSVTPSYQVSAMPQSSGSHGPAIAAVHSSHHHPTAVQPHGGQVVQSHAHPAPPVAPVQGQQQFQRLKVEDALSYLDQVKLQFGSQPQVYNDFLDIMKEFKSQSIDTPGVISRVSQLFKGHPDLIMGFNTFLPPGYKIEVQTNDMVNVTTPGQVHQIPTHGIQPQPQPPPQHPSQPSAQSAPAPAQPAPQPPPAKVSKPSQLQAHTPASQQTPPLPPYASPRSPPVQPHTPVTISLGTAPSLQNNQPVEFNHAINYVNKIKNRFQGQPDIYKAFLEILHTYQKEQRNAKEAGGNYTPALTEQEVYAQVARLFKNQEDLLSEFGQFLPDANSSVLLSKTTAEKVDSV
Text: as §1, §2, §3

| Compound | labeling of WT vs mutant protein by probe (HDHD3) | labeling of WT vs mutant protein by probe (PMVK) | labeling of WT vs mutant protein by probe (Sin3a) |
| --- | --- | --- | --- |
| C#CCCC(=O)Oc1c(F)c(F)c(S(=O)(=O)[O-])c(F)c1F.[Na+] [probe 1, reference compound] | HD (the WT labeled more than the mutant (>4x difference quantified)) | HD (the WT labeled more than the mutant (>4x difference quantified)) | PD (the WT labeled more than the mutant (>2x difference quantified)) |
| C#CCCC(=O)Oc1c(F)c(F)c(F)c(F)c1F [probe 6, Pentafluorophenyl 4-pentynoate] | HD (the WT labeled more than the mutant (>4x difference quantified)) | ND (the WT did not label more than the mutant (<2x difference quantified)) | HD (the WT labeled more than the mutant (>4x difference quantified)) |
| C#Cc1ccc(C(=O)Oc2ccccc2[N+](=O)[O-])cc1 [probe 10, 2-Nitrophenyl 4-ethynylbenzoate] | HD (the WT labeled more than the mutant (>4x difference quantified)) | ND (the WT did not label more than the mutant (<2x difference quantified)) | HD (the WT labeled more than the mutant (>4x difference quantified)) |
| C#Cc1ccc(C(=O)Oc2c(F)c(F)cc(F)c2F)cc1 [probe 12, 2,3,5,6-Tetrafluorophenyl 4-ethynylbenzoate] | HD (the WT labeled more than the mutant (>4x difference quantified)) | ND (the WT did not label more than the mutant (<2x difference quantified)) | HD (the WT labeled more than the mutant (>4x difference quantified)) |
| C#Cc1ccc(C(=O)Oc2c(F)c(F)c(F)c(F)c2F)cc1 [probe 13, Pentafluorophenyl 4-ethynylbenzoate] | HD (the WT labeled more than the mutant (>4x difference quantified)) | ND (the WT did not label more than the mutant (<2x difference quantified)) | HD (the WT labeled more than the mutant (>4x difference quantified)) |
| Cc1cc(C)n2c1C=C1C=CC(CCC(=O)Oc3c(F)c(F)c(S(=O)(=O)[O-])c(F)c3F)=[N+]1[B-]2(F)F.[Na+] [probe 18, reference compound] | HD (the WT labeled more than the mutant (>4x difference quantified)) | HD (the WT labeled more than the mutant (>4x difference quantified)) | HD (the WT labeled more than the mutant (>4x difference quantified)) |
